Measurements: publication PMC7022596, “Identification of the NADP^+ Structural Binding Site and Coenzyme Effect on the Fused G6PD::6PGL Protein from Giardia lamblia” (Biomolecules, 2019)

Molecular target: T1, fused G6PD::6PGL protein (Giardia duodenalis, UniProt A8BWM5)
T1 construct: gene GL50803_008682; natural fusion of G6PD and 6PGL domains in one open reading frame; pET-3a/g6pd::6pgl in E. coli BL21(DE3)Δzwf::kan^r; 2',5'-ADP Sepharose and Sephacryl 200; dimer
T1 sequence (A8BWM5 1-742): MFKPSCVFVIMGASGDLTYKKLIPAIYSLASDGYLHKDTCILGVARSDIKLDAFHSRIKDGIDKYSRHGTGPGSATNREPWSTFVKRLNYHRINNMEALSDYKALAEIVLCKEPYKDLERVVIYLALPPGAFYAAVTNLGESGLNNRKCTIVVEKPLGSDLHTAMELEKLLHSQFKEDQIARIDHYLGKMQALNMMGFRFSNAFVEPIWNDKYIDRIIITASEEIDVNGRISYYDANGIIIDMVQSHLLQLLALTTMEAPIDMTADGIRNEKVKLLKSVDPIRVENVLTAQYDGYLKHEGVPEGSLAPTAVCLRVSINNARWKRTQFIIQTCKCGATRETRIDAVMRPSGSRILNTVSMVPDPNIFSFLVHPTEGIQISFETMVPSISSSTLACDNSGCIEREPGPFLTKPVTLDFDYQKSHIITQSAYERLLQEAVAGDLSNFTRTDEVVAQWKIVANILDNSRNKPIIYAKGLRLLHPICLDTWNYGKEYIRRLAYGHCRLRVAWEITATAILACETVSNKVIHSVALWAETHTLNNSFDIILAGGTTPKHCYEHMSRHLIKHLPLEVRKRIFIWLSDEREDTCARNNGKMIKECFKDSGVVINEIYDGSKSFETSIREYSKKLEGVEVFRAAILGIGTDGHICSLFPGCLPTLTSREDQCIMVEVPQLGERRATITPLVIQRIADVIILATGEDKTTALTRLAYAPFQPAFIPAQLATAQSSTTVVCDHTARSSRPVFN
Assay: intrinsic tryptophan fluorescence quenching titration
Type: binding

Work on NC(=O)c1ccc[n+]([C@@H]2O[C@H](COP(=O)(O)OP(=O)(O)OC[C@H]3O[C@@H](n4cnc5c(N)ncnc54)[C@H](OP(=O)(O)O)[C@@H]3O)[C@@H](O)[C@H]2O)c1 [NADP^+] yielded a Kd of 63.2 nM.
